Target: T1, AtGDH (Aspergillus terreus NADP+-specific glutamate dehydrogenase) (Aspergillus terreus, UniProt T2D1F5)
T1 sequence (T2D1F5 1-460): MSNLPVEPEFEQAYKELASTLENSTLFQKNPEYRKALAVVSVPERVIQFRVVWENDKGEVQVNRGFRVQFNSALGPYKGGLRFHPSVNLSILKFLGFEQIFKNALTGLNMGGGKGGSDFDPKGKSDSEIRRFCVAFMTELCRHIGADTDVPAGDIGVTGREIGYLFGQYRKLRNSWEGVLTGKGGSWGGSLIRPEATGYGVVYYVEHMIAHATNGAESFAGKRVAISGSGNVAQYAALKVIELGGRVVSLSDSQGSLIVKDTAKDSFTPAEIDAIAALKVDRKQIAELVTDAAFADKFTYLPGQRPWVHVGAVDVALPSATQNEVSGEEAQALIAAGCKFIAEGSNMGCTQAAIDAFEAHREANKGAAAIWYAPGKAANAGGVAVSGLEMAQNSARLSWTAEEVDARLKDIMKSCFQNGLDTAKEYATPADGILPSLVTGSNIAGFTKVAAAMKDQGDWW
Test: NADPH oxidation at […] nm, reductive amination
Format: biochemical

Row | SMILES | Ki [mM]
1 | O=C(O)/C=C/C(=O)O [fumarate] | 23.2
2 | O=C(O)/C=C\C(=O)O [maleate] | 36.2
3 | O=C(O)CC(=O)O [malonate] | 19.5
4 | O=C(O)CCC(=O)O [succinate] | 39.1
5 | O=C(O)C(O)C(O)C(=O)O (centres unmarked) [tartrate] | 50.8
